Data reported in patent publication US20240366594A1, “Small Molecule Inhibitors of Formation of Neutrophil-Derived Extracellular Traps (NETosis) and Uses Thereof” (The Brigham and Women's Hospital, Inc., priority 2021, published 2024).

Assays:
mice challenged with LPS = assay: In vivo LPS-induced septic shock; set-up: species or system mouse; conditions: for platelet counts in the blood: 2 h post LPS challenge, compared with LPS alone, FIGS. 4C, 8D; for pro-inflammatory cytokine production (serum, ELISA): FIGS. 4E-4G; for neutrophils levels (blood and peritoneal lavage): FIGS. 8A-8C; for release of NETs by neutrophils in the peritoneal lavage (CitH3-positive neutrophils): cytofluorimetry, FIG. 4D; for body temperature 2 h post challenge: ricolinostat 30 mg/kg/dose or GSK484 25 mg/kg/dose i.p., FIG. 4B
Method: FIGS. 4A-G. Class I/IIb HDAC inhibition protects against systemic inflammation • (A) Time line of drug treatment and LPS priming and challenge. Mice were intraperitoneally injected, or not, with two doses of ricolinostat or GSK484 and were then intraperitoneally administered with two doses of LPS (−5 h, 1 mg/kg and 0 h, 2 mg/kg) to induce lethal sepsis. Peritoneal lavage and blood were collected 2 h after the LPS challenge. • (B) Body temperature was measured 2 h post challenge. • (C) Concentration of platelets in the blood was measured by cytofluorimetry. • (D) NETosis was measured as neutrophils (Ly6G+/CD11b+) positive for citrullinated histone H3 staining in the peritoneal lavage. • (E-G) Serum cytokines were measured by ELISA. […] Statistics were calculated using one-way ANOVA (*p<0.05; ** p<0.01; *** p<0.001; ****p<0.0001; n.s., not significant). n=15 for each group except the GSK484-treated group (n=10). Gray stars represent comparison of all experimental groups with the saline-treated healthy control. Black stars represent comparison of drug-treated groups with LPS-stimulated mice without drug treatment. Violin plots represent median (dashed line) with quartiles (dotted line). See also FIGS. 8A-F.
FIGS. 8A-F. Class I/IIb HDAC inhibition protects against systemic inflammation. • A-C) Neutrophils numbers and percentage were calculated in blood (A, B) and peritoneal lavage (C) of mice challenged, or not, with LPS. Saline group represent healthy mice. NT group represent mice that were challenged with LPS without receiving any drug. Ricolinostat (30 mg/kg/dose) or GSK484 (25 mg/kg/dose) were administered intraperitoneally at day −1, and 2 hour prior LPS priming. • D) Concentration of platelets in the blood was assessed by cytofluorimetry 2 hours post LPS-challenge. • E, F) Absolute amounts of serum cytokines were measured by ELISA. Violin plots represent median (dashed line) with quartiles (dotted line). Statistics were calculated using One-way ANOVA (*P<0.05; **P<0.01; ***P<0.001; ****P<0.0001; n.s., not significant). Grey stars represent comparison of all experimental groups with the saline control. Black stars represent comparison of drug treated groups with NT group.
Alternatively, neutrophils positive for citrullinated histone H3 were quantified by cytofluorimetry. Briefly, neutrophils from bronco-alveolar lavage fluid or peritoneal lavage fluid were stained for Ly6G, CD11b, CD45 and Zombie dye for 20 minutes at room temperature and then fixed with BD FACS Lysing Solution (cat #349202, BD Biosciences). Samples were washed twice with Intracellular Staining Permeabilization Wash buffer (cat #421002, Biolegend), incubated with anti-citrullinated histone H3 antibody (Abcam) 1 hour at room temperature and subsequently with PE anti-rabbit antibody for 30 minutes. Finally, samples were acquired with BD FACS Fortessa and neutrophils (CD45+/Ly6G+/CD11b+) positive for citrullinated histone H3 were quantified with FlowJo software.
8-week-old female mice were primed with 1 mg/kg of LPS intra peritoneum (i.p.) for 5 hours and then challenged with 2 mg/kg of LPS i.p. Ricolinostat was used at 30 mg/kg/dose, GSK484 at 25 mg/kg/dose and dexamethasone at 10 mg/kg/dose. Drugs were administered i.p. at day −1 and 2 hours prior priming. Blood samples were collected 2 hours post-challenge and cytokines were measured by ELISA. The platelet concentrations and neutrophils numbers in the blood and peritoneal cavity were calculated by cytofluorimetry using CountBright Absolute Cell Counting Beads (Thermo Scientific) according to the manufacturer's instructions. NETosis was measured as quantity of neutrophils in the peritoneal lavage positive for citrullinated histone H3 by cytofluorimetry.

[1] = system: mice treated with S. aureus; assay: S. aureus pulmonary infection model (bacterial pneumonia); format: in vivo, mouse; conditions: for NETosis (citrullinated histone H3 and MPO-DNA complexes in BALF): ELISA, FIGS. 3E and 3F; for bacterial control (S. aureus CFU in lung homogenates): FIG. 3D; for numbers of neutrophils in the BALF: FIG. 3I; for neutrophils circulating in the blood: FIGS. 3H, 7A; for lung barrier alteration (albumin content in BALF): compared with S. aureus alone, FIG. 3C; for citrullinated histone H3-positive neutrophils in the BALF: cytofluorimetric quantification, FIG. 3G; for IL-1β / IL-6: in the BALF, compared with S. aureus only, FIGS. 7B-7D

Structure (SMILES) | platelet counts in the blood (mice challenged with LPS) | pro-inflammatory cytokine production (serum, ELISA) (mice challenged with LPS) | neutrophils levels (blood and peritoneal lavage) (mice challenged with LPS) | release of NETs by neutrophils in the peritoneal lavage (CitH3-positive neutrophils) (mice challenged with LPS) | body temperature 2 h post challenge (mice challenged with LPS) | NETosis (citrullinated histone H3 and MPO-DNA complexes in BALF) [1] | bacterial control (S. aureus CFU in lung homogenates) [1] | numbers of neutrophils in the BALF [1] | neutrophils circulating in the blood [1] | lung barrier alteration (albumin content in BALF) [1] | citrullinated histone H3-positive neutrophils in the BALF [1] | IL-1β [1] | IL-6 [1] | pro-inflammatory cytokine production (serum, ELISA), comparison with dexamethasone (mice challenged with LPS; dexamethasone 10 mg/kg/dose, ricolinostat 30 mg/kg/dose, FIGS. 8E and 8F) | morbidity (body temperature) ([1]; ricolinostat 30 mg/kg/dose i.p. at -24 h and -3 h, compared with S. aureus only and with S. aureus and GSK484, FIG. 3B)
COc1cc(C(=O)N2CC[C@@H](O)[C@@H](N)C2)cc2nc(-c3cc4ccccc4n3CC3CC3)n(C)c12 [GSK484] | significantly higher | significantly decreased | increased neutrophils levels | reduced release of NETs | no temperature loss | potently decreased | not affected | increased numbers | no major differences | prevented | inhibit NETosis | significantly decreased | significantly decreased | – | –
O=C(CCCCCCNC(=O)c1cnc(N(c2ccccc2)c2ccccc2)nc1)NO [ricolinostat] | significantly higher | significantly decreased | increased neutrophils levels | reduced release of NETs | no temperature loss | potently decreased | not affected | increased numbers | no major differences | prevented | inhibit NETosis | significantly decreased | significantly decreased | efficiently reduced | significantly decreased
